Results: patent publication US20260035382A1, “COMPOUNDS AS SUMO ACTIVATING ENZYME INHIBITORS” (WIGEN BIOMEDICINE TECHNOLOGY (SHANGHAI) CO., LTD., priority 2022, published 2026)
Where two headings read alike, the source gives them in different places.

Biological target: SAE (Homo sapiens (Human), UniProt Q9UBT2)
Assay: In vitro inhibitory activity assay against SAE (SUMO-2/3 immunofluorescence in HCT116 cells)
Format: cell-based
Details: 6 h incubation, read-out: SUMO IF IC50
Outline: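 HCT116 cells treated with compounds for 6 h at 37 °C, then fixed, permeabilized and immunostained for SUMO-2/3 with FITC secondary detection. Fluorescence compared with DMSO control to give inhibition rate and IC50.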

SAE, sequence (Q9UBT2 whole entry): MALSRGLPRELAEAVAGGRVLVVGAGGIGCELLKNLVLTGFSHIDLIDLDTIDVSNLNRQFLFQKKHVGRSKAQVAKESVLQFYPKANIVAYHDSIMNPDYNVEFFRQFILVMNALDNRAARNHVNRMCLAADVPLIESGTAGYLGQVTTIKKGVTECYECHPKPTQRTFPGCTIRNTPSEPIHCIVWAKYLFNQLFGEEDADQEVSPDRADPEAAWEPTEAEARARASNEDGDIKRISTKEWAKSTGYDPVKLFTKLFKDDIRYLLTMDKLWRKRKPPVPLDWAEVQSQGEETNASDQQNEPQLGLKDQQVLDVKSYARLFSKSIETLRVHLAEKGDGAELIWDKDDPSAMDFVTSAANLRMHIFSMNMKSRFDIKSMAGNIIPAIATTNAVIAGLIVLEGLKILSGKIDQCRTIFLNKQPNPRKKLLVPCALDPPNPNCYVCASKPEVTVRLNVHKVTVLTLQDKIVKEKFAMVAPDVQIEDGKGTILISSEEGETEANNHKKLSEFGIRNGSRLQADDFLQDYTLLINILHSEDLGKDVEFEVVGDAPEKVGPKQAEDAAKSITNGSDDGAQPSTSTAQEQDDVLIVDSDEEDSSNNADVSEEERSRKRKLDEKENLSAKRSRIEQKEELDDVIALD
SAE, sequence (Q9UBE0 whole entry partner): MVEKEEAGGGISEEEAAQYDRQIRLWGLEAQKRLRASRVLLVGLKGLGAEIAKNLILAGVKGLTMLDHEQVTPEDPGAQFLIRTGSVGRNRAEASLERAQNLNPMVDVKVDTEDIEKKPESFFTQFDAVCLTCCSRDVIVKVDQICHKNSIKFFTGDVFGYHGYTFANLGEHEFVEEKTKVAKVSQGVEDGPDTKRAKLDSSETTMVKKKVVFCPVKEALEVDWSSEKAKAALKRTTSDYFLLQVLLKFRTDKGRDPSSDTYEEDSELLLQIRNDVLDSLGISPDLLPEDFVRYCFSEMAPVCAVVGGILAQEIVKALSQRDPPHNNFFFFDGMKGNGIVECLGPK

Row | Structure (SMILES) | IC50 (class symbols) [nM] | IC50 (numeric values) [nM]
1 | NS(=O)(=O)OC[C@H]1C[C@@H](Nc2ncncc2C(=O)c2cc3c(s2)CCCC32NCCc3cc(F)c(Cl)c(F)c32)C[C@@H]1O (some centres unmarked) [Compound 32] | 50 to 200 | 
2 | N#Cc1ccc2c(c1)C1(CCc3sc(C(=O)c4cncnc4N[C@@H]4C[C@H](COS(N)(=O)=O)[C@@H](O)C4)cc31)OCC2 (some centres unmarked) [Compound 286] | 50 to 200 | 
3 | NS(=O)(=O)OC[C@H]1C[C@@H](Nc2ncncc2C(=O)c2cc3c(s2)CC[C@]32NCCc3cc(Cl)c(Cl)cc32)C[C@@H]1O [Compound 229] | ≤ 50 | 
4 | NS(=O)(=O)OC[C@H]1C[C@@H](Nc2ncncc2C(=O)c2cc3c(s2)C(=O)CC32NCCc3ccc(Cl)cc32)C[C@@H]1O (some centres unmarked) [Compound 166] | 50 to 200 | 
5 | NS(=O)(=O)OC[C@H]1C[C@@H](Nc2ncncc2C(=O)c2cc3c(s2)CN(C2CC2)CC32OCCc3ccc(Cl)cc32)C[C@@H]1O (some centres unmarked) [Compound 277] | 50 to 200 | 
6 | Cc1ccc2c(c1)C1(CCCc3sc(C(=O)c4cncnc4N[C@@H]4C[C@H](COS(N)(=O)=O)[C@@H](O)C4)cc31)NCC2 (some centres unmarked) [Compound 22] | 50 to 200 | 
7 | CC(C)N1Cc2sc(C(=O)c3cncnc3N[C@@H]3C[C@H](COS(N)(=O)=O)[C@@H](O)C3)cc2[C@@]2(C1)OCCc1ccc(Cl)cc12 [Compound 272] | > 200 | 
8 | C=CCN1Cc2sc(C(=O)c3cncnc3N[C@@H]3C[C@H](COS(N)(=O)=O)[C@@H](O)C3)cc2C2(C1)NCCc1ccc(Cl)cc12 (some centres unmarked) [Compound 190] | ≤ 50 | 
9 | NS(=O)(=O)OC[C@H]1C[C@@H](Nc2ncncc2C(=O)c2cc3c(s2)C=CC32OCCc3ccccc32)C[C@@H]1O (some centres unmarked) [Compound 289] | 50 to 200 | 
10 | NS(=O)(=O)OC[C@H]1C[C@@H](Nc2ncncc2C(=O)c2cc3c(s2)C(F)=C[C@@]32NCCc3ccc(Cl)cc32)C[C@@H]1O [Compound 155] | > 200 | 
11 | NS(=O)(=O)OC[C@H]1C[C@@H](Nc2ncncc2C(=O)c2cc3c(s2)CCC[C@]32NCCc3cc(F)c(Cl)c(F)c32)C[C@@H]1O [Compound 212] | ≤ 50 | 
12 | NS(=O)(=O)OC[C@H]1C[C@@H](Nc2ncncc2C(=O)c2cc3c(s2)COCC32NCCc3c(Cl)cc(Cl)cc32)C[C@@H]1O (some centres unmarked) [Compound 100] | 50 to 200 | 
13 | NS(=O)(=O)OC[C@H]1C[C@@H](Nc2ncncc2C(=O)c2nc3c(s2)COCC32NCCc3ccc(Cl)cc32)C[C@@H]1O (some centres unmarked) [Compound 124] | > 200 | 
14 | NS(=O)(=O)OC[C@H]1C[C@@H](Nc2ncncc2C(=O)c2cc3c(s2)CCC32OCCc3ccccc32)C[C@@H]1O (some centres unmarked) [Compound 280] | > 200 | 
15 | NS(=O)(=O)OC[C@H]1C[C@@H](Nc2ncncc2C(=O)c2nc3c(s2)CCC[C@@]32NCCc3ccc(Cl)cc32)C[C@@H]1O [Compound 122] | > 200 | 
16 | NS(=O)(=O)OC[C@H]1C[C@@H](Nc2ncncc2C(=O)c2cc3c(s2)CC[C@]32OCCc3ccc(F)cc32)C[C@@H]1O [Compound 285] | 50 to 200 | 
17 | [2H]C1([2H])CN[C@]2(C=Cc3sc(C(=O)c4cncnc4N[C@@H]4C[C@H](COS(N)(=O)=O)[C@@H](O)C4)cc32)c2cc(Cl)ccc21 [Compound 238] | ≤ 50 | 
18 | CN1Cc2sc(C(=O)c3cncnc3N[C@@H]3C[C@H](COS(N)(=O)=O)[C@@H](O)C3)cc2[C@@]2(C1)OCCc1ccc(Cl)cc12 [Compound 260] | > 200 | 
19 | NS(=O)(=O)OC[C@H]1C[C@@H](Nc2ncncc2C(=O)c2cc3c(s2)CCCC32NCCc3ccc(Cl)cc32)C[C@@H]1O (some centres unmarked) [Compound 4] | ≤ 50 | 
20 | NS(=O)(=O)OC[C@H]1C[C@@H](Nc2ncncc2C(=O)c2cc3c(s2)CSC[C@@]32NCCc3ccc(Cl)nc32)C[C@@H]1O [Compound 146] | > 200 | 
21 | NS(=O)(=O)OC[C@H]1C[C@@H](Nc2ncncc2C(=O)c2cc3c(s2)C(F)(F)C[C@@]32NCCc3ccc(Cl)cc32)C[C@@H]1O [Compound 161] | > 200 | 

Row | Structure (SMILES) | IC50 (class symbols) [nM] | IC50 (numeric values) [nM]
22 | [2H]C1([2H])Cc2ccc(Cl)cc2[C@]2(CCCc3sc(C(=O)c4cncnc4N[C@@H]4C[C@H](COS(N)(=O)=O)[C@@H](O)C4)cc32)N1 [Compound 197] |  | > 1000
23 | NS(=O)(=O)OC[C@H]1C[C@@H](Nc2ncncc2C(=O)c2cc3c(s2)CC[C@]32NCCc3cc(F)c(Cl)c(F)c32)C[C@@H]1O [Compound 233] | ≤ 50 | 
24 | CN1Cc2sc(C(=O)c3cncnc3N[C@@H]3C[C@H](COS(N)(=O)=O)[C@@H](O)C3)cc2[C@]2(C1)OCCc1ccc(F)cc12 [Compound 258] | ≤ 50 | 
25 | N#Cc1ccc2c(c1)[C@]1(CCCc3sc(C(=O)c4cncnc4N[C@@H]4C[C@H](COS(N)(=O)=O)[C@@H](O)C4)cc31)NCC2 [Compound 11] | > 200 | 
26 | CN1CCc2ccc(Cl)cc2C12CCCc1sc(C(=O)c3cncnc3N[C@@H]3C[C@H](COS(N)(=O)=O)[C@@H](O)C3)cc12 (some centres unmarked) [Compound 130] | 50 to 200 | 
27 | NS(=O)(=O)OC[C@H]1C[C@@H](Nc2ncncc2C(=O)c2cc3c(s2)CSCC32NCCc3ccc(F)cc32)C[C@@H]1O (some centres unmarked) [Compound 88] | ≤ 50 | 
28 | CCN1Cc2sc(C(=O)c3cncnc3N[C@@H]3C[C@H](COS(N)(=O)=O)[C@@H](O)C3)cc2[C@]2(C1)OCCc1ccc(F)cc12 [Compound 264] | ≤ 50 | 
29 | C=CCN1Cc2sc(C(=O)c3cncnc3N[C@@H]3C[C@H](COS(N)(=O)=O)[C@@H](O)C3)cc2[C@]2(C1)NCCc1ccc(Cl)cc12 [Compound 192] |  | 25.1
30 | NS(=O)(=O)CC[C@H]1C[C@@H](Nc2ncncc2C(=O)c2cc3c(s2)CCCC32NCCc3ccc(Cl)nc32)C[C@@H]1O (some centres unmarked) [Compound 136] | ≤ 50 | 
31 | COc1ccc2c(c1)[C@]1(CCCc3sc(C(=O)c4cncnc4N[C@@H]4C[C@H](COS(N)(=O)=O)[C@@H](O)C4)cc31)NCC2 [Compound 179] | > 200 | 
32 | NS(=O)(=O)OC[C@H]1C[C@@H](Nc2ncncc2C(=O)c2cc3c(s2)COC[C@@]32NCCc3ccc(Cl)c(F)c32)C[C@@H]1O [Compound 104] | > 200 | 
33 | NS(=O)(=O)OC[C@H]1C[C@@H](Nc2ncncc2C(=O)c2cc3c(s2)C=CC32OCCc3ccc(Cl)cc32)C[C@@H]1O (some centres unmarked) [Compound 295] | ≤ 50 | 
34 | [2H]C1([2H])Cc2ccc(Cl)cc2C2(CCCc3sc(C(=O)c4cncnc4N[C@@H]4C[C@H](COS(N)(=O)=O)[C@@H](O)C4)cc32)N1 (some centres unmarked) [Compound 196] | 50 to 200 | 
35 | NS(=O)(=O)CC[C@H]1C[C@@H](Nc2ncncc2C(=O)c2cc3c(s2)CSC[C@]32NCCc3ncc(Cl)cc32)C[C@@H]1O [Compound 150] | ≤ 50 | 
36 | NS(=O)(=O)OC[C@H]1C[C@@H](Nc2ncncc2C(=O)c2cc3c(s2)C=C[C@]32OCCc3ccc(Cl)cc32)C[C@@H]1O [Compound 297] | ≤ 50 | 
37 | NS(=O)(=O)OC[C@H]1C[C@@H](Nc2ncncc2C(=O)c2cc3c(s2)CCCC32NCCc3ccccc32)C[C@@H]1O (some centres unmarked) [Compound 1] | 50 to 200 | 
38 | CC(C)N1Cc2sc(C(=O)c3cncnc3N[C@@H]3C[C@H](COS(N)(=O)=O)[C@@H](O)C3)cc2C2(C1)NCCc1ccc(Cl)cc12 (some centres unmarked) [Compound 184] | ≤ 50 | 
39 | NS(=O)(=O)OC[C@H]1C[C@@H](Nc2ncncc2C(=O)c2cc3c(s2)OC[C@]32NCCc3ccc(F)cc32)C[C@@H]1O [Compound 60] | 50 to 200 | 
40 | C#CCN1Cc2sc(C(=O)c3cncnc3N[C@@H]3C[C@H](COS(N)(=O)=O)[C@@H](O)C3)cc2[C@]2(C1)NCCc1ccc(Cl)cc12 [Compound 195] |  | 21.3
41 | C#CCN1Cc2sc(C(=O)c3cncnc3N[C@@H]3C[C@H](COS(N)(=O)=O)[C@@H](O)C3)cc2C2(C1)NCCc1ccc(Cl)cc12 (some centres unmarked) [Compound 193] | ≤ 50 | 
